Experimental data published in EP4667482A1, “SALT OF DIPEPTIDE COMPOUND, PREPARATION METHOD THEREFOR, AND USE THEREOF” (Zhejiang Huahai Pharmaceutical Co., Ltd., priority 2023, dated 2024).
Converted amounts (≈) assume the structure as drawn. Where a name gives a salt, the structure may show the parent alone. Read-outs that look alike come from different tables or passages of the source.

Legend:
[1] = Moisture adsorption / hygroscopicity (DVS); type: physicochemical; details: for Hygroscopicity: result in words
[2] = Stability at room temperature (10 days); type: physicochemical
[3] = system: Rats model of deep vein thrombosis; test: Rat model of deep vein thrombosis (thrombus weight); type: in vivo, SD rats
Excerpt: Experimental animals: SD rats (body weight 220 to 250 g, sex: male)
The thrombus was removed and weighed.

[4] = Blood drug level in the rat deep vein thrombosis model
Experimental: Preparation of solution: An appropriate amount of Form I was weighed, dissolved in a vehicle (0.5% (W/V) Natrosol™ 250 HX solution containing 0.1% (W/V) L(+)-tartaric acid) to formulate into the required concentration and then stirred uniformly, so that the drug was administered according to the predetermined dose.
Procedure: Rats were acclimatized for 3 days and randomly divided into three groups: model group, positive control group/subject group and bridging group, with 8 to 10 rats in each group. […] Rats in each group were anesthetized with urethane (20%, 5 mL/kg) via intraperitoneal injection. The abdominal cavity was exposed, the vena cava was bluntly separated, and two surgical sutures of 8 to 10 cm in length were placed under the blood vessels, both 1 cm apart. When the modeling time of each group was reached, rabbit thromboplastin (0.02 mg/kg) was injected into the left femoral vein, and the two sutures were knotted 10 s later, and the knotted portion of the suture was cut with ophthalmic scissors after 1 h. The thrombus was removed and weighed.

[5] = Solid-state stability of Form III (mechanical milling; storage at 60 °C sealed); type: physicochemical
Solubility determination = type: physicochemical; details: for aqueous solubility: water, result in words
[6] = Accelerated stability test at 25 ± 2 °C, 60 ± 5% humidity; type: physicochemical
Experimental: The accelerated stability test data of the Form I at T = 25 ± 2 °C, 60 ± 5% humidity are as follows: […]

[7] = Experimental: Experimental animals: SD rats (body weight 200 to 300 g, sex: half of male and half of female)
The doses of 5, 10 and 20 mg/kg were administered by gavage, and blood was collected from the jugular vein at 5 min, 10 min, 20 min, 30 min, 1 h, 2 h, 4 h, 6 h, 8 h, 12 h and 24 h after the administration of the drug, processed, and analyzed for blood drug level by LC-MS/MS.
Data were processed using Phoenix WinNonlin 6.4 non-compartmental model to calculate the pharmacokinetic parameters of rats after drug administration, including t1/2, AUC0-t, AUC0-∞, Cl/F or Clss/F or Cl, Vz/F or Vss, MRT, Cmax, C5min, Tmax, and Cmin, Cavg, and AUC0-τ for multiple administrations to reach steady state, etc.

[8] = 0.1 mg/kg/h, intravenous infusion

## CCCCCCOC(=O)NC(=N)c1ccc(CNC(=O)[C@@H]2CCCN2C(=O)[C@@H](CC(C)C)NCC(=O)OCC)cc1 [Form B of the monohydrochloride]
[1]
  Moisture adsorption content (wt%): 3.0 wt%
  Hygroscopicity: Hygroscopic
[2]
  Stability at room temperature (10 days): White powder, crystalline form remains unchanged (10 days)

## CC(C)C[C@@H](NCC(=O)O)C(=O)N1CCC[C@H]1C(=O)NCc1ccc(C(=N)N)cc1 [Compound V]
[3]; [8]
  Thrombosis inhibition rate (%): 48.2%
  Thrombus weight: 36.8 ± 6.6 mg
[3]; intravenous infusion of 0.1 mg/kg/h in rats
  antithrombotic effect compared with oral administration of 5 mg/kg Form I: comparable
[4]; intravenous infusion of 0.1 mg/kg/h compound V
  Blood drug level: 174.2 ± 51.8 ng/mL

## CCCCCCOC(=O)NC(=N)c1ccc(CNC(=O)[C@@H]2CCCN2C(=O)[C@@H](CC(C)C)NCC(=O)OCC)cc1 [Form III]
[1]; 80% RH
  water absorption (DVS): 28.8%
[1]; 90% humidity
  water absorption (DVS): 50.0%
[5]; 60 °C/sealed condition for 7 days
  crystalline form after storage: converted to Form I
[5]; after storage at 60 °C/sealed condition for 7 days
  purity: 89.35%
[5]; before storage at 60 °C/sealed condition
  purity: 95.81%
[5]; mechanical milling for 2 minutes
  crystalline form after mechanical milling: converted to Form I

## CCCCCCOC(=O)NC(=N)c1ccc(CNC(=O)[C@@H]2CCCN2C(=O)[C@@H](CC(C)C)NCC(=O)OCC)cc1
Solubility determination
  aqueous solubility: insoluble in water

## CCCCCCOC(=O)NC(=N)c1ccc(CNC(=O)[C@@H]2CCCN2C(=O)[C@@H](CC(C)C)NCC(=O)OCC)cc1 [Form A of the monohydrochloride]
[1]
  Moisture adsorption content (wt%): 0.5 wt%
  Hygroscopicity: Slightly hygroscopic
[2]
  Stability at room temperature (10 days): White powder, crystalline form remains unchanged (10 days)

## CCCCCCOC(=O)NC(=N)c1ccc(CNC(=O)[C@@H]2CCCN2C(=O)[C@@H](CC(C)C)NCC(=O)OCC)cc1 [dihydrochloride]
Solubility determination
  aqueous solubility: excellent aqueous solubility

## CCCCCCOC(=O)N=C(N)c1ccc(NCc2nc3cc(C(=O)N(CCC(=O)OCC)c4ccccn4)ccc3n2C)cc1 [Dabigatran etexilate, reference compound]
[3]; 5 mg/kg, oral gavage
  Thrombosis inhibition rate (%): 69.9%
  Thrombus weight: 21.4 ± 8.2 mg

## CCCCCCOC(=O)NC(=N)c1ccc(CNC(=O)[C@@H]2CCCN2C(=O)[C@@H](CC(C)C)NCC(=O)OCC)cc1 [Form I]
[1]; 80% RH
  water absorption (DVS): 28.8%
[1]; 90% humidity
  water absorption (DVS): 49.9%
[1]; after DVS test
  solid form after DVS test: converted to amorphous form
[1]; high humidity
  behaviour of the sample at high humidity (DVS): undergoes deliquescence
[1]
  Hygroscopicity: Hygroscopic
Solubility determination; AC (Acetic acid)
  Solubility: >250 mg/mL
Solubility determination; ACN
  Solubility: >250 mg/mL
Solubility determination; DMSO
  Solubility: >250 mg/mL
Solubility determination; Diox
  Solubility: ~125 mg/mL (≈ 218 mM)
Solubility determination; EA
  Solubility: <0.3 mg/mL
Solubility determination; EtOH
  Solubility: >250 mg/mL
Solubility determination; Hept
  Solubility: <0.3 mg/mL
Solubility determination; IPA
  Solubility: ~167 mg/mL (≈ 291 mM)
Solubility determination; MEK
  Solubility: ~1.6 mg/mL (≈ 2.79 mM)
Solubility determination; MTBE
  Solubility: <0.3 mg/mL
Solubility determination; NBA
  Solubility: ~167 mg/mL (≈ 291 mM)
Solubility determination; THF
  Solubility: ~11.1 mg/mL (≈ 19.3 mM)
Solubility determination; Tol
  Solubility: <0.3 mg/mL
Solubility determination; Water
  Solubility: >250 mg/mL
Solubility determination; acetonitrile and dichloromethane
  Solubility: readily soluble
Solubility determination; buffer solutions with different pH values (1.2 to 13.0)
  Solubility: Highly soluble
Solubility determination; n-heptane and N, N-diisopropyl ethylamine
  Solubility: almost insoluble or insoluble
[6]; 0 month
  Content (HPLC): 99.6%
  Hydrolyzed impurities: 0.19%
  Moisture: 0.4%
  Other individual impurities: <RL(0.05%)
  Total impurities: 0.42%
[6]; 1 month
  Content (HPLC): 99.3%
  Hydrolyzed impurities: 0.27%
  Moisture: 0.5%
  Other individual impurities: <RL(0.05%)
  Total impurities: 0.54%
[6]; 2 months
  Content (HPLC): 100.3%
  Hydrolyzed impurities: 0.28%
  Moisture: 0.3%
  Other individual impurities: <RL(0.05%)
  Total impurities: 0.56%
[6]; 3 months
  Content (HPLC): 100.3%
  Hydrolyzed impurities: 0.45%
  Moisture: 0.4%
  Other individual impurities: <RL(0.05%)
  Total impurities: 0.72%
[6]; 6 months
  Content (HPLC): 99.6%
  Hydrolyzed impurities: 0.51%
  Moisture: 0.3%
  Other individual impurities: <RL(0.05%)
  Total impurities: 1.02%
[3]; 2.5 mg/kg, oral gavage
  Thrombosis inhibition rate (%): 27.0%
  Thrombus weight: 51.9 ± 8.3 mg
[3]; 5 mg/kg, oral gavage
  Thrombosis inhibition rate (%): 54.7%
  Thrombus weight: 32.1 ± 5.7 mg
[3]; 10 mg/kg, oral gavage
  Thrombus weight: 21.3 ± 5.1 mg
[3]; 20 mg/kg, oral gavage
  Thrombosis inhibition rate (%): 79.7%
  Thrombus weight: 14.4 ± 3.6 mg
[3]; at the same dose
  antithrombotic efficacy compared with dabigatran etexilate: basically equivalent
[7]; gavage 5 mg/kg, Female
  AUC0-t (h·ng/mL): 850+226 h·ng/mL
  AUC0-∞: 854 ± 224 ng·h/mL
  Cl/F: 104 ± 33 mL/min/kg
  Cmax: 522 ± 170 ng/mL
  MRT0-t: 1.6 ± 0.34 h
  MRT0-∞ (h): 1.7+0.38 h
  Tmax: 0.59 ± 0.29 h
  V2/F: 13.9 ± 6.75 L/kg
  t1/2: 1.5 ± 0.26 h
[7]; gavage 5 mg/kg, Male
  AUC0-t: 604 ± 182 ng·h/mL
  AUC0-∞: 606 ± 181 ng·h/mL
  Cl/F: 147 ± 41.7 mL/min/kg
  Cmax: 344 ± 163 ng/mL
  MRT0-t: 1.6 ± 0.20 h
  MRT0-∞: 1.7 ± 0.21 h
  Tmax: 0.66 ± 0.23 h
  V2/F: 18.1 ± 6.08 L/kg
  t1/2: 1.4 ± 0.32 h
[7]; gavage 5 mg/kg, Total
  AUC0-t: 727 ± 231 ng·h/mL
  AUC0-∞: 730 ± 231 ng·h/mL
  Cl/F: 126 ± 41.7 mL/min/kg
  Cmax: 433 ± 181 ng/mL
  MRT0-t: 1.6 ± 0.26 h
  MRT0-∞: 1.7 ± 0.28 h
  Tmax: 0.62 ± 0.24 h
  V2/F: 16.0 ± 6.37 L/kg
  t1/2: 1.5 ± 0.27 h
[7]; gavage 10 mg/kg, Female
  AUC0-t: 2060 ± 783 ng·h/mL
  AUC0-∞: 1830 ng·h/mL
  Cl/F: 92.3 mL/min/kg
  Cmax: 1120 ± 385 ng/mL
  MRT0-t: 1.6 ± 0.27 h
  MRT0-∞: 1.6 h
  Tmax: 0.75 ± 0.29 h
  V2/F: 20.1 L/kg
  t1/2: 2.6 h
[7]; gavage 10 mg/kg, Male
  AUC0-t: 1460 ± 324 ng·h/mL
  AUC0-∞: 1460 ± 324 ng·h/mL
  Cl/F: 118 ± 26.5 mL/min/kg
  Cmax: 934 ± 299 ng/mL
  MRT0-t: 1.6 ± 0.24 h
  MRT0-∞: 1.7 ± 0.20 h
  Tmax: 0.63 ± 0.25 h
  V2/F: 46.9 ± 24.6 L/kg
  t1/2: 4.5 ± 1.8 h
[7]; gavage 10 mg/kg, Total
  AUC0-t: 1760 ± 642 ng·h/mL
  AUC0-∞: 1590 ± 346 ng·h/mL
  Cl/F: 110 ± 25.5 mL/min/kg
  Cmax: 1030 ± 335 ng/mL
  MRT0-t: 1.6 ± 0.24 h
  MRT0-∞: 1.7 ± 0.26 h
  Tmax: 0.69 ± 0.26 h
  V2/F: 38.0 ± 23.6 L/kg
  t1/2: 3.9 ± 1.8 h
[7]; gavage 20 mg/kg, Female
  AUC0-t: 3840 ± 446 ng·h/mL
  AUC0-∞ (h·ng/mL): 3850+446 h·ng/mL
  Cl/F: 87.5 ± 10.2 mL/min/kg
  Cmax: 2170 ± 380 ng/mL
  MRT0-t (h): 1.7+0.19 h
  MRT0-∞: 1.8 ± 0.18 h
  Tmax: 0.50 ± 0.0 h
  V2/F: 30.8 ± 5.67 L/kg
  t1/2: 4.0 ± 0.35 h
[7]; gavage 20 mg/kg, Male
  AUC0-t (h·ng/mL): 4650+2440 h·ng/mL
  AUC0-∞: 4660 ± 2440 ng·h/mL
  Cl/F: 83 ± 29.8 mL/min/kg
  Cmax: 2230 ± 531 ng/mL
  MRT0-t: 1.8 ± 0.33 h
  MRT0-∞: 1.8 ± 0.32 h
  Tmax: 0.88 ± 0.25 h
  V2/F: 26.6 ± 17.0 L/kg
  t1/2: 3.7 ± 1.7 h
[7]; gavage 20 mg/kg, Total
  AUC0-t: 4250 ± 1680 ng·h/mL
  AUC0-∞: 4250 ± 1680 ng·h/mL
  Cl/F: 85.3 ± 20.8 mL/min/kg
  Cmax: 2200 ± 429 ng/mL
  MRT0-t: 1.8 ± 0.25 h
  MRT0-∞: 1.8 ± 0.25 h
  Tmax: 0.69 ± 0.26 h
  V2/F: 28.7 ± 11.9 L/kg
  t1/2: 3.9 ± 1.2 h
[4]; level of compound V after oral 2.5 mg/kg Form I, 2.5 mg/kg
  Blood drug level: 190.1 ng/mL
[4]; level of compound V after oral 2.5 mg/kg Form I, listed as Crystal form I, 2.5 mg/kg
  Blood drug level: 190.1 ± 62.9 ng/mL
[4]; level of compound V after oral 5 mg/kg Form I, 5 mg/kg
  Blood drug level: 181.3 ng/mL
[4]; level of compound V after oral 10 mg/kg Form I, 10 mg/kg
  Blood drug level: 341.9 ng/mL
[4]; level of compound V after oral 10 mg/kg Form I, listed as Crystal form I, 10 mg/kg
  Blood drug level: 341.9 ± 46.4 ng/mL
[4]; level of compound V after oral 20 mg/kg Form I, 20 mg/kg
  Blood drug level: 609.7 ng/mL
[4]; level of compound V after oral 20 mg/kg Form I, listed as Crystal form I, 20 mg/kg
  Blood drug level: 609.7 ± 174.0 ng/mL
